Values of other authors, collected in patent US9961900B2, “Herbicide formulations” (priority 2012, dated 2018).
Converted amounts (≈) assume the structure as drawn. Read-outs that look alike come from different tables or passages of the source. Blank lines part the entries; values can stand above or below the compound they belong to.

How the values were obtained:
[1] = for Aqueous hydrolysis: at pH 7 and 20° C.
[2] = not given; remark: listed apart in the source
[3] = not given; remark: listed apart in the source

SMILES: C=CCO/N=C(\CCC)C1=C(O)CC(C)(C)C(C(=O)OC)C1=O (racemic) [aloxydim, methyl (1RS)-3-[(E)-1-(allyloxyimino)butyl]-4-hydroxy-6,6-dimethyl-2-oxocyclohex-3-enecarboxylate]
Aqueous photolysis DT50 (pH 7): Aqueous photolysis DT50 at pH 7: 0.22 days ^+

SMILES: CCCC(=NOCC)C1=C(O)C[C@@H]([C@H]2CCCSC2)CC1=O (racemic) [cycloxydim, (5RS)-2-[(EZ)-1-(ethoxyimino)butyl]-3-hydroxy-5-[(3RS)-thian-3-yl]cyclohex-2-en-1-one]
Aqueous photolysis DT50 (pH 7): Aqueous photolysis DT50 at pH 7: 0.05 days ^+

SMILES: COc1cc(OC)nc(NC(=O)NS(=O)(=O)c2ncccc2C(=O)N(C)C)n1 [nicosulfuron]
Photolytic stability DT50 (at pH 7): DT50: 202 d | Aqueous hydrolysis (DT50) ([1]; at pH 5): 15 days | Aqueous hydrolysis (DT50) ([1]; at pH 7): Stable

SMILES: CCS[C@H](C)C[C@H]1CC(=O)C(C(CC)=NOC/C=C/Cl)=C(O)C1 (racemic) [clethodim, (5RS)-2-{(1EZ)-1-[(2E)-3-chloroallyloxyimino]propyl}-5-[(2RS)-2-(ethylthio)propyl]-3-hydroxycyclohex-2-en-1-one]
Aqueous photolysis DT50 (pH 5, 25° C.): 1.6 days | Aqueous photolysis DT50 (pH 7, 25° C.): Aqueous photolysis DT50 at pH 7: 5.45 days (25° C.) | Aqueous photolysis DT50 (pH 9, 25° C.): 7.79 days

SMILES: CCOC(=O)C(Cl)Cc1cc(-n2nc(C)n(C(F)F)c2=O)c(F)cc1Cl (racemic) [carfentrazone-ethyl, ethyl (RS)-2-chloro-3-{2-chloro-5-[4-(difluoromethyl)-4,5-dihydro-3-methyl-5-oxo-1H-1,2,4-triazol-1-yl]-4-fluorophenyl}propionate]
Solubility in acetone ([2]; 20° C.): 2000 mg/mL (≈ 4850 mM) | Solubility in ethanol ([2]; 20° C.): 2000 mg/mL (≈ 4850 mM) | Solubility in hexane ([2]; 20° C.): 30 mg/mL (≈ 72.8 mM) | Solubility in toluene ([2]; 20° C.): 900 mg/mL (≈ 2180 mM) | Solubility in water ([2]; 20° C.): Water: 22 mg/L (20° C.) | log P (octanol-water) ([3]; pH 7, 20° C.): logP = 3.36 | Aqueous hydrolysis (DT50) ([1]; 20° C. and pH 7): 13.7 (non-persistent) days | Aqueous hydrolysis stability ([1]; pH 5, 20° C.): pH sensitive: stable at pH 5, | Hydrolysis DT50 ([1]; pH 9, 20° C.): DT50 5.1 hours at pH 9, (20° C.)^+

SMILES: COC(=O)C(C)Oc1ccc(Oc2ccc(Cl)cc2Cl)cc1 (racemic) [diclofop-methyl, methyl (RS)-2-[4-(2,4-dichlorophenoxy)phenoxy]propionate]
Solubility in acetone ([2]; 20° C.): In acetone, toluene, dichloromethane, 500,000 mg/L | Solubility in dichloromethane ([2]; 20° C.): In acetone, toluene, dichloromethane, 500,000 mg/L | Solubility in n-hexane ([2]; 20° C.): mg/L; in n-Hexane: 49,700 mg/L (all at 20° C.) ^++ | Solubility in toluene ([2]; 20° C.): In acetone, toluene, dichloromethane, 500,000 mg/L | Solubility in water ([2]; 20° C.): Water: 0.39 mg/L (20° C.) | log P (octanol-water) ([3]; pH 7, 20° C.): log P = 4.8 | Aqueous photolysis DT50 (pH 7): Aqueous photolysis DT50 at pH 7: 22 days^++ | Aqueous hydrolysis (DT50) ([1]; 20° C. and pH 7): at 20 °C and pH 7: 31.7 days | Hydrolysis DT50 ([1]; pH 5, 25° C., darkness): 363 days | Hydrolysis DT50 ([1]; pH 7, 25° C., darkness): 31.7 days | Hydrolysis DT50 ([1]; pH 9, 25° C., darkness): 0.52 days

SMILES: CCCCOC(=O)[C@@H](C)Oc1ccc(Oc2ccc(C#N)cc2F)cc1 [cyhalofop-butyl, butyl (R)-2-[4-(4-cyano-2-fluorophenoxy)phenoxy]propionate]
log P (octanol-water) ([3]; pH 7, 20° C.): log P = 4.8 | Aqueous hydrolysis (DT50) ([1]; 20° C. and pH 7): Aqueous hydrolysis DT50 at 20 °C and pH 7: 97 days | Aqueous hydrolysis stability ([1]; pH 4, 25° C.): Stable | Hydrolysis DT50 ([1]; pH 9, 25° C.): 2 days

SMILES: CCON=C(CC)C1=C(O)CC(c2c(C)cc(C)cc2C)CC1=O (racemic) [tralkoxydim, (RS)-2-[(EZ)-1-(ethoxyimino)propyl]-3-hydroxy-5-mesitylcyclohex-2-en-1-one]
Solubility in water ([2]; pH 5.2): 6.7 mg/L at 22 °C (pH 5.2) | Solubility in water ([2]; pH 6.5): 6.1 mg/L at 22 °C (pH 6.5) | Solubility in water ([2]; pH 9): 9820 mg/L at 22 °C (pH 9.0) | Aqueous photolysis DT50 (pH 7): Aqueous photolysis DT50 at pH 7: 5.8 days 5.8 ^+ | Aqueous hydrolysis (DT50) ([1]; 20° C. and pH 7): at 20 °C and pH 7: 140 days | Hydrolysis DT50 ([1]; pH 5, 25° C.): pH sensitive: DT50 9 days at pH 5, | Aqueous hydrolysis stability ([1]; pH 9): stable at pH 9, all at 25° C.^+

SMILES: CCCC(=NOCC)C1=C(O)C[C@@H](C[C@@H](C)SCC)CC1=O (racemic) [sethoxydim, (5RS)-2-[(EZ)-1-(ethoxyimino)butyl]-5-[(2RS)-2-(ethylthio)propyl]-3-hydroxycyclohex-2-en-1-one]
Aqueous photolysis DT50 (pH 7): Aqueous photolysis DT50 at pH 7: 0.02 days ^+

SMILES: Cc1ccn2nc(S(=O)(=O)Nc3c(F)cccc3F)nc2n1 [flumetsulam]
Photolytic stability DT50 (pH 7): DT50: 270 d

SMILES: COC(=O)c1ccccc1S(=O)(=O)NC(=O)N(C)c1nc(C)nc(OC)n1 [tribenuron-methyl]
Photolytic stability DT50 (pH 7): Stable | Aqueous hydrolysis (DT50) ([1]; at pH 5): 2.2 days | Aqueous hydrolysis (DT50) ([1]; at pH 7): 16

Stability in aqueous media ([1]; pH 3): Stable at pH 3-7 ^+
SMILES: CCOC(=O)C(C)Oc1ccc(Oc2cnc3cc(Cl)ccc3n2)cc1 (racemic) [quizalofop-ethyl, ethyl (2RS)-2-[4-(6-chloroquinoxalin-2-yloxy)phenoxy]propionate]

Solubility in cyclohexane [2]: > 40 g/kg | Solubility in ethanol [2]: > 50 mg/mL | Solubility in n-octanol [2]: > 50 mg/mL | Solubility in water [2]: Water: 0.8 mg/L
SMILES: CCOC(=O)C(C)Oc1ccc(Oc2nc3ccc(Cl)cc3s2)cc1 (racemic) [fenthiaprop-ethyl, ethyl (RS)-2-[4-(6-chloro-1,3-benzothiazol-2-yloxy)phenoxy]propionate]
Solubility in acetone [2]: In acetone, ethyl acetate, toluene, >500 g/kg; | Solubility in ethyl acetate [2]: In acetone, ethyl acetate, toluene, >500 g/kg; | Solubility in toluene [2]: In acetone, ethyl acetate, toluene, >500 g/kg;

Photolytic stability DT50 (pH 7): DT50: 3.2 d (“”) | Aqueous hydrolysis [1]: Stable (“”)
SMILES: COc1cc(OC)n2nc(NS(=O)(=O)c3c(C(F)(F)F)ccnc3OC)nc2n1 [pyroxsulam]

SMILES: C[C@@H](Oc1ccc(Oc2ncc(C(F)(F)F)cc2Cl)cc1)C(=O)O [haloxyfop-P, (R)-2-{4-[3-chloro-5-(trifluoromethyl)-2-pyridyloxy]phenoxy}propionic acid]
Aqueous photolysis DT50 (pH 7): Aqueous photolysis DT50 at pH 7: 12 days

SMILES: COc1cnc(OC)n2nc(NS(=O)(=O)c3c(OCC(F)F)cccc3C(F)(F)F)nc12 [penoxsulam]
Photolytic stability DT50 (pH 7): DT50: 2 d (at pH 7) | Aqueous hydrolysis [1]: Stable (at pH 7 and 20° C.)

Solubility in water ([2]; pH 6.5): Water: 1 mg/L at pH 6.5 | log P (octanol-water) ([3]; 20° C.): log P = 4.5
SMILES: CCCCOC(=O)C(C)Oc1ccc(Oc2ccc(C(F)(F)F)cn2)cc1 (racemic) [fluazifop-butyl, butyl (RS)-2-{4-[5-(trifluoromethyl)-2-pyridyloxy]phenoxy}propionate]
Solubility in propylene glycol ([2]; 20° C.): dichloromethane, and xylene. Propylene glycol, 24 g/L

SMILES: CC(Oc1ccc(Oc2ccc(Cl)cc2Cl)cc1)C(=O)O (racemic) [diclofop, (RS)-2-[4-(2,4-dichlorophenoxy)phenoxy]propionic acid]
log P (octanol-water) ([3]; pH 5): log P = 2.81 | log P (octanol-water) ([3]; pH 7): log P = 1.61

Aqueous photolysis DT50 (pH 7): Aqueous photolysis DT50 at pH 7: 24 days | Behaviour in alkaline media ([1]; alkaline media): hydrolyzes | Hydrolytic DT50 ([1]; pH 7, 25° C.): 4.8 days | Hydrolytic DT50 ([1]; pH 9, 25° C.): 0.07 days
SMILES: C#CCOC(=O)[C@@H](C)Oc1ccc(Oc2ncc(Cl)cc2F)cc1 [clodinafop-propargyl, prop-2-ynyl (R)-2-[4-(5-chloro-3-fluoro-2-pyridyloxy)phenoxy]propionate]

SMILES: COc1nc(C)nc(NC(=O)NS(=O)(=O)c2ccccc2Cl)n1 [chlorsulfuron]
Photolytic stability DT50 (pH 7): DT50: 18.8 d | Aqueous hydrolysis (DT50) ([1]; at pH 5): 1 days | Aqueous hydrolysis (DT50) ([1]; at pH 7): Stable

Aqueous photolysis DT50 (pH 7): Aqueous photolysis DT50 at pH 7: 6 days | Hydrolysis DT50 ([1]; pH 5, 25° C., darkness): Stable | Hydrolysis DT50 ([1]; pH 9, 25° C., darkness): 1.21 days
SMILES: CCCCOC(=O)[C@@H](C)Oc1ccc(Oc2ccc(C(F)(F)F)cn2)cc1 [fluazifop-P-butyl, butyl (R)-2-{4-[5-(trifluoromethyl)-2-pyridyloxy]phenoxy}propionate]
Aqueous hydrolysis (DT50) ([1]; 20° C. and pH 7): Aqueous hydrolysis DT50 (days) at 20 °C and pH 7: 78

SMILES: CC(C)=NOCCOC(=O)[C@@H](C)Oc1ccc(Oc2cnc3cc(Cl)ccc3n2)cc1 [propaquizafop, 2-isopropylideneaminooxyethyl (R)-2-[4-(6-chloroquinoxalin-2-yloxy)phenoxy]propionate]
Hydrolytic DT50 ([1]; pH 5, 25° C.): 10.5 days | Hydrolytic DT50 ([1]; pH 7, 25° C.): 32.0 days | Hydrolytic DT50 ([1]; pH 9, 25° C.): 0.538 days

SMILES: COC(=O)c1ccccc1S(=O)(=O)NC(=O)Nc1nc(C)nc(OC)n1 [metsulfuron-methyl]
Photolytic stability DT50 (pH 7): Stable | Aqueous hydrolysis (DT50) ([1]; at pH 5): 2 days | Aqueous hydrolysis (DT50) ([1]; at pH 7): Stable

SMILES: CC(Oc1ccc(Oc2ncc(C(F)(F)F)cc2Cl)cc1)C(=O)O (racemic) [haloxyfop, (RS)-2-{4-[3-chloro-5-(trifluoromethyl)-2-pyridyloxy]phenoxy}propionic acid]
Aqueous photolysis DT50 (pH 7): Aqueous photolysis DT50 at pH 7: 12 days | Aqueous hydrolysis (DT50) ([1]; 20° C. and pH 7): Stable

Solubility in water ([2]; 20° C.): Water: 16 mg/L (20° C.) ^++ | log P (octanol-water) ([3]; pH 7, 20° C.): logP = 2.7
SMILES: C#CCOc1cc(-n2nc3n(c2=O)CCCC3)c(Cl)cc1Cl [azafenidin, 2-(2,4-dichloro-5-prop-2-ynyloxyphenyl)-5,6,7,8-tetrahydro-1,2,4-triazolo[4,3-a]pyridin-3(2H)-one]
Aqueous photolysis DT50 (Pesticide Properties Database): 0.5 days

SMILES: COc1cc(OC)n2nc(S(=O)(=O)Nc3c(Cl)ccc(C)c3Cl)nc2n1 [metosulam]
Photolytic stability DT50 (pH 7): DT50: 31.1 d | Aqueous hydrolysis [1]: Stable

SMILES: C[C@@H](Oc1ccc(Oc2cnc3cc(Cl)ccc3n2)cc1)C(=O)OCC1CCCO1 (stereo partly drawn) [quizalofop-P-tefuryl]
Aqueous photolysis DT50 (pH 7): Aqueous photolysis DT50 at pH 7: 1.0 days | Aqueous hydrolysis (DT50) ([1]; 20° C. and pH 7): Aqueous hydrolysis DT50 at 20 °C and pH 7: 18.2 days | Hydrolysis DT50 ([1]; pH 5.1, 22° C.): 8.2 days | Hydrolysis DT50 ([1]; pH 9.2, 22° C.): 0.3 days
